Experimental data taken from patent publication US20250197343A1, “CATIONIC LIPID” (TAKEDA PHARMACEUTICAL COMPANY LIMITED, priority 2021, published 2025).

Experiments:
[1] = Particle size of Luc DNA-encapsulated lipid nanoparticles; assay type: physicochemical; settings: cationic lipid:DPPC:cholesterol:GM-020=60:10.6:28:1.4 molar ratio
Text: The particle size of the lipid particle (in the composition) can be measured by a known approach. For example, the particle size can be calculated as a Z-average particle size by the cumulant analysis of an autocorrelation function using a particle size measurement apparatus Zetasizer Nano ZS (Malvern Instruments) based on a dynamic light scattering measurement technique. The particle size (average particle size) of the lipid particle (in the composition) is, for example, 10 to 200 nm, preferably 60 to 170 nm.
(§1) A lipid mixture containing a cationic lipid of the Examples shown in Table 2 (cationic lipid:DPPC:cholesterol:GM-020=60:10.6:28:1.4, molar ratio) was dissolved in 90% of EtOH and 10% of water to obtain a 15.0 mg/ml lipid solution. Luciferase (luc) DNA (manufactured by Nature Technology Corp.) was dissolved in a 10 mM MES buffer solution (pH 5.5) to obtain a 0.3 mg/ml nucleic acid solution. The obtained lipid solution and nucleic acid solution were mixed at a flow rate ratio of 3 ml/min:6 ml/min at room temperature using NanoAssemblr (manufactured by Precision NanoSystems Inc.) to obtain a dispersion containing Luc DNA-encapsulated lipid nanoparticles. The obtained dispersion was dialyzed against water at room temperature for 1 hour and against PBS at 4° C. for 23 hours using Slyde-A-Lyzer (molecular weight cutoff: 20 K, Thermo Fischer Scientific Inc.). Subsequently, the dialysate was filtered through a 0.2 µm syringe filter (Iwaki). A 60% solution of sucrose in PBS was added thereto, and the mixture was preserved as a 20% solution of sucrose in PBS at −80° C. Analysis results of particle size and rate of encapsulation of the Luc DNA-encapsulated lipid nanoparticles are also shown in Table 2.

[2] = Rate of encapsulation of Luc DNA in lipid nanoparticles; assay type: physicochemical; design: unit: %; settings: Luc DNA-encapsulated lipid nanoparticles; cationic lipid:DPPC:cholesterol:GM-020=60:10.6:28:1.4 molar ratio
Text: The concentration and rate of encapsulation of the nucleic acid (e.g., siRNA or mRNA) in the composition of the present invention can be measured by a known approach. For example, the nucleic acid is fluorescently labeled using Quant-iT™ RiboGreen® (Invitrogen Corp.), and the fluorescence intensity can be measured to determine the concentration and the rate of encapsulation. The concentration of the nucleic acid in the composition can be calculated using a calibration curve prepared from aqueous nucleic acid solutions having known concentrations. The rate of encapsulation can be calculated on the basis of the difference in fluorescence intensity between the presence and absence of addition of Triton-X 100 (surfactant for disrupting the lipid particle). The concentration of the nucleic acid in the composition refers to the total concentration of a nucleic acid encapsulated in the lipid particle and an unencapsulated nucleic acid. The rate of encapsulation refers to the ratio of the nucleic acid encapsulated in the lipid particle to all nucleic acids in the composition.
as §1

[3] = tested on: ICrl:CD1 (ICR) mice; test: Mouse bioluminescence imaging evaluation (Test Example 1); assay type: in vivo; settings: Luc DNA-encapsulated lipid nanoparticles 10 mL/kg i.v. to ICR mice; IVIS total flux 15 minutes after luciferin i.p.
Method: The Luc DNA-encapsulated lipid nanopatricles obtained in the aforesaid Production Example were intravenously administered to the tails of ICrl:CD1 (ICR) mice (10 mL/kg i.v.). After administration of the lipid particles, luciferin (15 mg/mL) was administered to the mice (10 mL/kg i.p.), which were loaded in an IVIS (in vivo imaging system) apparatus (manufactured by PerkinElmer, Inc.) under isoflurane inhalation anesthesia. Luminescence images of the mice were taken ventrally (in a supine position) 15 minutes after luciferin administration. The luminescence was digitized with the software of IVIS, followed by evaluation using the value of total flux. Higher luminescence means strong expression of the protein encoded by the DNA encapsulate in the lipid particle. In Table 2, higher luminescence is indicated on a scale of A, B and C in order. A represents luminescence of 3.0E+07 or more, B represents luminescence of 1.0E+0.7 or more and less than 3.0E+07, and C represents luminescence of less than 1.0E+07.

Row | Particle size (nm) [1] | Rate of encapsulation [2] | SMILES | Luminescence [3]
1 | 161.0 nm | 82.0 | CCCCCC(CCCCC)CC(=O)OCC(COC(=O)CCCCC(=O)OCC(CCCC)CCCC)(COC(=O)CCCCC(=O)OCC(CCCC)CCCC)COC(=O)CCCN(C)C [Example 117, 1,1′-Bis(2-butylhexyl) 6,6′-[2-({[4-(dimethylamino)butanoyl]oxy}methyl)-2-{[(3-pentyloctanoyl)oxy]methyl}propane-1,3-diyl] dihexanedioate] | B (B represents luminescence of 1.0E+0.7 or more and less than 3.0E+07)
2 | 140.5 nm | 96.3 | CCCCCCCCOC(=O)CCCC(=O)OCC(COC(=O)CCCC(=O)OCCCCCCCC)(COC(=O)CCCN(C)C)COC(=O)CC(CCCCC)CCCCC [Example 98, 1,1′-[2-({[4-(Dimethylamino)butanoyl]oxy}methyl)-2-{[(3-pentyloctanoyl)oxy]methyl}propane-1,3-diyl] 5,5′-dioctyl dipentanedioate] | A (A represents luminescence of 3.0E+07 or more)
3 | 111.9 nm | 96.5 | CCCCCCCOC(=O)CCCCC(=O)OCC(COC(=O)CCCCC(=O)OCCCCCCC)(COC(=O)CCCN(CC)C(C)C)COC(=O)CC(CCCCC)CCCCC [Example 91, 1,1′-(2-[({4-[Ethyl(propan-2-yl)amino]butanoyl}oxy)methyl]-2-{[(3-pentyloctanoyl)oxy]methyl}propane-1,3-diyl] 6,6′-diheptyl dihexanedioate] | B (B represents luminescence of 1.0E+0.7 or more and less than 3.0E+07)
4 | 133.4 nm | 95.3 | CCCCCCCCC(C(=O)OC)C(=O)OCC(COC(=O)CCCN(CC)C(C)C)(COC(=O)CC(CCCCC)CCCCC)COC(=O)C(CCCCCCCC)C(=O)OC (stereo not drawn) [Example 133, 1,1′-(2-[({4-[Ethyl(propan-2-yl)amino]butanoyl}oxy)methyl]-2-{[(3-pentyloctanoyl)oxy]methyl}propane-1,3-diyl) 3,3′-dimethyl bis(octylpropanedioate)] | C (C represents luminescence of less than 1.0E+07)
5 | 129.4 nm | 93.0 | CCCCCCCOC(=O)CCCCC(=O)OCC(COC(=O)CCCCC(=O)OCCCCCCC)(COC(=O)CCCN(C)CCCO)COC(=O)CC(CCCCC)CCCCC [Example 94, 1,1′-Diheptyl 6,6′-(2-[({4-[(3-hydroxypropyl)(methyl)amino]butanoyl}oxy)methyl]-2-{[(3-pentyloctanoyl)oxy]methyl}propane-1,3-diyl) dihexanedioate] | C (C represents luminescence of less than 1.0E+07)
6 | 97.2 nm | 92.6 | CCCCCCCCCCOC(=O)CC(=O)OCC(COC(=O)CCCN(C)C)(COC(=O)CC(=O)OCCCCCCCCCC)COC(=O)CC(CCCCC)CCCCC [Example 71, 1,1′-Didecyl 3,3′-[2-({[4-(dimethylamino)butanoyl]oxy}methyl)-2-{[(3-pentyloctanoyl)oxy]methyl}propane-1,3-diyl] dipropanedioate] | A (A represents luminescence of 3.0E+07 or more)
7 | 82.6 nm | 99.1 | CCCCCC(CCCCC)COC(=O)CCC(=O)OCC(COC(=O)CCCN(C)C)(COC(=O)CCC(=O)OCC(CCCCC)CCCCC)COC(=O)CC(CCCCC)CCCCC [Example 95, 1,1′-[2-({[4-(Dimethylamino)butanoyl]oxy}methyl)-2-{[(3-pentyloctanoyl)oxy]methyl}propane-1,3-diyl] 4,4′-bis(2-pentylheptyl) dibutanedioate] | B (B represents luminescence of 1.0E+0.7 or more and less than 3.0E+07)

Continued, molecule first:

Row | SMILES | Particle size (nm) [1] | Rate of encapsulation [2] | Luminescence [3]
8 | CCCCCCCOC(=O)CCCCC(=O)OCC(COC(=O)CCCCC(=O)OCCCCCCC)(COC(=O)CCN(C)C)COC(=O)CC(CCCCC)CCCCC [Example 12, 1,1′-(2-{[(N,N-Dimethyl-beta-alanyl)oxy]methyl}-2-{[(3-pentyloctanoyl)oxy]methyl}propane-1,3-diyl) 6,6′-diheptyl dihexanedioate] | 89.5 nm | 95.7 | C (C represents luminescence of less than 1.0E+07)
9 | CCCCCC(CCCCC)CC(=O)OCC(COC(=O)CCCCC(=O)OCCCC)(COC(=O)CCN(C)C)COC(=O)CC(CCCCC)CCCCC [Example 19, Butyl 2-{[(N,N-dimethyl-beta-alanyl)oxy]methyl}-3-[(3-pentyloctanoyl)oxy]-2-{[(3-pentyloctanoyl)oxy]methyl}propyl hexanedioate] | 89.8 nm | 95.4 | B (B represents luminescence of 1.0E+0.7 or more and less than 3.0E+07)
10 | CCCCCCCCCCOC(=O)CCCCC(=O)OCC(COC(=O)CCCCC(=O)OCCCCCCCCCC)(COC(=O)CCCCC(=O)OCCCCCCCCCC)COC(=O)CCCN(C)C [Example 42, 1,1′-Didecyl 6,6′-[2-({[6-(dexyloxy)-6-oxohexanoyl]oxy}methyl)-2-({[4-(dimethylamino)butanoyl]oxy}methyl)propane-1,3-diyl] dihexanedioate] | 114.5 nm | 86.2 | C (C represents luminescence of less than 1.0E+07)
11 | CCCCCC(CCCCC)CC(=O)OCC(COC(=O)CCCCCCCC(=O)OC)(COC(=O)CCCCCCCC(=O)OC)COC(=O)CCCN(C)C [Example 35, 1,1′-[2-({[4-(Dimethylamino)butanoyl]oxy}methyl)-2-{[(3-pentyloctanoyl)oxy]methyl}propane-1,3-diyl] 9,9′-dimethyl dinonanedioate] | 95.1 nm | 96.1 | B (B represents luminescence of 1.0E+0.7 or more and less than 3.0E+07)
12 | CCCCCCCCCOC(=O)CCCCC(=O)OCC(COC(=O)CCCN(C)C)(COC(=O)CC(CCCCC)CCCCC)COC(=O)CC(CCCCC)CCCCC [Example 50, 2-({[4-(Dimethylamino)butanoyl]oxy}methyl)-3-[(3-pentyloctanoyl)oxy]-2-{[(3-pentyloctanoyl)oxy]methyl}propyl nonyl hexanedioate] | 86.5 nm | 98.2 | B (B represents luminescence of 1.0E+0.7 or more and less than 3.0E+07)
13 | CCCCCCCOC(=O)CCCCC(=O)OCC(COC(=O)CCCN(CC)CC)(COC(=O)CC(CCCCC)CCCCC)COC(=O)CC(CCCCC)CCCCC [Example 17, 2-({[4-(Diethylamino)butanoyl]oxy}methyl)-3-[(3-pentyloctanoyl)oxy]-2-{[(3-pentyloctanoyl)oxy]methyl}propyl heptyl hexanedioate] | 120.7 nm | 96.2 | B (B represents luminescence of 1.0E+0.7 or more and less than 3.0E+07)
14 | CCCCCCCOC(=O)CCCCCCCC(=O)OCC(COC(=O)CCCCCCCC(=O)OCCCCCCC)(COC(=O)CCCN(C)C)COC(=O)CC(CCCCC)CCCCC [Example 60, 1,1′-[2-({[4-(Dimethylamino)butanoyl]oxy}methyl)-2-{[(3-pentyloctanoyl)oxy]methyl}propane-1,3-diyl] 9,9′-diheptyl dinonanedioate] | 143.9 nm | 77.6 | A (A represents luminescence of 3.0E+07 or more)
